From patent publication US20260041093A1, “Ionic Derivatives Of Aromatic Carboxylic Acid For Use As Plant Stimulants, Method For Stimulating Plants And Use Of These Derivatives For Manufacturing Compositions For Stimulating Plants” (FUNDACJA UNIWERSYTETU IM. ADAMA MICKIEWICZA W POZNANIU, priority 2022, published 2026)
Where two headings read alike, the source gives them in different places.

How the values were obtained:
lettuce [1] = settings: 3-chlorosalicylate 100 mg/L double application, benzothiadiazole salt 50 mg/L single application
Protocol: The purpose of the study was to determine the effect of foliar spraying with test solutions on lettuce plants (Lactuca sativa L. ‘Zeralda’) under abiotic stress conditions—low temperature. After 7 and 14 days after transplanting the plants to a permanent place, spraying of the plants was carried out. […] After another 7 days, low temperature stress was induced—plants were grown in three glass chambers with a day temperature of 22° C. and night temperatures of 4, 12 and 20° C. until harvest.

[2] = tested on: apple trees (M9 rootstocks); settings: 4 sprays at 14-day intervals; 3-chlorosalicylate 100 mg/L, benzothiadiazole salt 25 mg/L
Text: Flowers were counted during the experiment, and the number of shoots and leaves in the fall.

lettuce [3] = tested on: lettuce
Text: The purpose of the study was to determine the effect of foliar spraying with test solutions on lettuce (Lactuca sativa L. ‘Zeralda’) plants. The plants were sprayed 7 and 14 days after transplanting to a permanent site. […] After another 7 days, drought stress was induced (plants in the selected combinations were not watered until symptoms of leaf wilting appeared), followed by proper watering of the plants again. Control plants were watered in turn to a constant weight. After 3 days after re-watering, chlorophyll fluorescence was measured (OJIP test, methodology described, among others, in Kalaji H. M., 2011. Impact of abiotic stress factors on chlorophyll fluorescence in plants of selected barley cultivars Hordeum vulgare L. SGGW Publishing House, Warsaw [https://badanieroslin.pl/wp-content/uploads/2018/11/Oddzialywanie-abiotycznych-czynnikow. . . ..pdf]) and the condition of the plants was assessed.
The measurement was carried out after inducing drought stress, followed by re-watering the plants to a constant weight. […] This parameter is lowered by stresses.

tomato = test: Greenhouse tomato sprayed three times: yield, health-promoting substances, leaf chlorophyll (Example 2); type: in vivo; settings: 80 mg/L, benzothiadiazole salt 30 mg/L, chitosan lactate 50 mg/L
Protocol: Biostimulant properties were evaluated for the following stimulants: […] The evaluation of stimulant properties included the influence of tested substances on tomato yield, content of health-promoting substances in yield and chlorophyll content in tomato leaves. […] The untreated control plants were sprayed with distilled water. During the experiment, total yield weight, commercial and non-commercial yield and average commercial fruit weight, number of fruits per plant and average fruit weight per plant were evaluated. […] Chlorophyll was measured before each treatment and one day after each treatment using Minolta's SPAD-502 chlorophyll meter.

tulip = test: Tulip bulbs in peat watered with working solution: height, stem diameter, weights, root length, flowering, vigor (Example 1); type: in vivo; settings: 80 mg/L, benzothiadiazole salt 30 mg/L
Protocol: Control plants were watered with distilled water. During the conducted experiment, plant height was measured before each treatment. Flowering length and plant vigor were also studied. After 20 days from the end of the last treatment, the fresh and dry weight of aboveground parts and roots, and root length were assessed.

[4] = Control (watered), double application, 3-chlorosalicylate 100 mg/L, benzothiadiazole salt 50 mg/L
[5] = Control (watered), single application, 50 mg/L
[6] = Drought, double application, 3-chlorosalicylate 100 mg/L, benzothiadiazole salt 50 mg/L
[7] = Drought, single application, 50 mg/L
[8] = double application, 3-chlorosalicylate 100 mg/L, benzothiadiazole salt 50 mg/L
[9] = Table 2, 20 days after last treatment
[10] = Table 3 (title: tulip bulbs / root system)

C[N+](C)(C)CCO.O=C([O-])c1cccc2nnsc12
Head weight, 4° C. (lettuce [1]; night temperature 4° C.): 47.6 b g/plant | Head weight, 12° C. (lettuce [1]; night temperature 12° C.): 54.9 b c g/plant | Head weight, 20° C. (lettuce [1]; night temperature 20° C.): 65.1 b g/plant | Average number of flowers per plant [2]: 31.1 b | Average number of leaves per plant [2]: 47.1 b | Average number of shoots per plant [2]: 6.5 b | ABS/RC (lettuce [3]; [4]): 1.46 b | DIo/RC (lettuce [3]; [4]): 0.28 b | ETo/RC (lettuce [3]; [4]): 0.93 ab | F0 (lettuce [3]; [4]): 7100 b | FM (lettuce [3]; [4]): 45265 b | FM/F0 (lettuce [3]; [4]): 6.52 ab | Fv (lettuce [3]; [4]): 38164 b | Fv/F0 (lettuce [3]; [4]): 5.52 abc | Fv/FM (lettuce [3]; [4]): 0.85 abc | Pi_Abs (PSII functioning index calculated on the basis of energy absorption) (lettuce [3]; [4]): 10.33 ab | TRo/RC (lettuce [3]; [4]): 1.74 b | ABS/RC (lettuce [3]; [5]): 1.45 b | DIo/RC (lettuce [3]; [5]): 0.28 b | ETo/RC (lettuce [3]; [5]): 0.87 ab | F0 (lettuce [3]; [5]): 6762 b | FM (lettuce [3]; [5]): 41874 b | FM/F0 (lettuce [3]; [5]): 6.19 abc | Fv (lettuce [3]; [5]): 35112 b | Fv/F0 (lettuce [3]; [5]): 5.19 abc | Fv/FM (lettuce [3]; [5]): 0.84 abc | Pi_Abs (PSII functioning index calculated on the basis of energy absorption) (lettuce [3]; [5]): 4.47 a | TRo/RC (lettuce [3]; [5]): 1.74 b | ABS/RC (lettuce [3]; [6]): 1.14 a | DIo/RC (lettuce [3]; [6]): 0.20 a | ETo/RC (lettuce [3]; [6]): 0.84 ab | F0 (lettuce [3]; [6]): 4965 a | FM (lettuce [3]; [6]): 34715 a | FM/F0 (lettuce [3]; [6]): 6.99 bc | Fv (lettuce [3]; [6]): 29750 b | Fv/F0 (lettuce [3]; [6]): 5.99 ab | Fv/FM (lettuce [3]; [6]): 0.86 c | Pi_Abs (PSII functioning index calculated on the basis of energy absorption) (lettuce [3]; [6]): 12.61 days | TRo/RC (lettuce [3]; [6]): 1.34 a | ABS/RC (lettuce [3]; [7]): 1.12 a | DIo/RC (lettuce [3]; [7]): 0.24 a | ETo/RC (lettuce [3]; [7]): 0.75 a | F0 (lettuce [3]; [7]): 5675 a | FM (lettuce [3]; [7]): 32147 a | FM/F0 (lettuce [3]; [7]): 5.67 a | Fv (lettuce [3]; [7]): 26472 a | Fv/F0 (lettuce [3]; [7]): 4.67 a | Fv/FM (lettuce [3]; [7]): 0.83 a | Pi_Abs (PSII functioning index calculated on the basis of energy absorption) (lettuce [3]; [7]): 7.47 b | TRo/RC (lettuce [3]; [7]): 1.36 a | % dry matter (leaf), Average (lettuce [3]; [8]): 4.67 b % | % dry matter (leaf), Drought (lettuce [3]; [8]): 3.61 a % | % dry matter (leaf), Watered (lettuce [3]; [8]): 5.73 c % | Head and root weight, Average (lettuce [3]; [8]): 69.4 a g/plant | Head and root weight, Drought (lettuce [3]; [8]): 70.6 ab g/plant | Head and root weight, Watered (lettuce [3]; [8]): 69.2 a g/plant | Head weight, Average (lettuce [3]; [8]): 53.4 a g/plant | Head weight, Drought (lettuce [3]; [8]): 51.6 ab g/plant | Head weight, Watered (lettuce [3]; [8]): 51.6 b g/plant | RWC (relative water content), Watered (lettuce [3]; [8]): 74.3 b % | RWC, Average (lettuce [3]; [8]): 75.0 a % | RWC, Drought (lettuce [3]; [8]): 64.0 a % | % dry matter (leaf), Average (lettuce [3]; single application, 50 mg/L): 3.75 b % | % dry matter (leaf), Drought (lettuce [3]; single application, 50 mg/L): 3.59 b % | % dry matter (leaf), Watered (lettuce [3]; single application, 50 mg/L): 3.51 b % | Head and root weight, Average (lettuce [3]; single application, 50 mg/L): 84.6 b g/plant | Head and root weight, Drought (lettuce [3]; single application, 50 mg/L): 84.4 bc g/plant | Head and root weight, Watered (lettuce [3]; single application, 50 mg/L): 85.2 c g/plant | Head weight, Average (lettuce [3]; single application, 50 mg/L): 65.1 b g/plant | Head weight, Drought (lettuce [3]; single application, 50 mg/L): 62.5 c g/plant | Head weight, Watered (lettuce [3]; single application, 50 mg/L): 65.3 c g/plant | RWC (relative water content), Watered (lettuce [3]; single application, 50 mg/L): 77.1 b % | RWC, Average (lettuce [3]; single application, 50 mg/L): 74.5 a % | RWC, Drought (lettuce [3]; single application, 50 mg/L): 71.5 ab % | Chlorophyll content (SPAD), a day after treatment #1 (tomato): 63.5 b | Chlorophyll content (SPAD), a day after treatment #2 (tomato): 61.3 b | Chlorophyll content (SPAD), a day after treatment #3 (tomato): 63.2 b | Chlorophyll content (SPAD), Treatment #1 (tomato; before treatment #1): 51.2 a | Chlorophyll content (SPAD), Treatment #2 (tomato; before treatment #2): 51.4 a | Chlorophyll content (SPAD), Treatment #3 (tomato; before treatment #3): 51.1 a | Average fruit weight per plant (tomato; spray 3x): 148.70 b g | Average weight of marketable fruit (tomato; spray 3x): 26.13 b kg/m^2 | Commercial yield (tomato; spray 3x): 18.13 b kg/m^2 | Number of fruits per plant (tomato; spray 3x): 4.17 b | Total yield (tomato; spray 3x): 18.83 b kg/m^2 | Calcium (tomato; tomato fruits): 91.4 a mg/kg | Lycopene (tomato; tomato fruits): 36.5 b mg/kg | Magnesium (tomato; tomato fruits): 106.3 b mg/kg | Vit. C (tomato; tomato fruits): 200.1 c mg/kg | Vit. E (tomato; tomato fruits): 25.9 b mg/kg | °Brix (sugar content of the liquid expressed in degree of Brix) (tomato; tomato fruits): 5.92 b g | Average stem diameter at the end of the experiment 20 days after the 4th treatment (tulip): 8.3 b mm | Flowering length (tulip): 23 days | Root length (tulip): 84.7 b mm | Vigor [on a scale from 1 to 5] (tulip; 1 is a laying plant, 5 is a stiff plant): 4.9 b | Average dry weight of the above-ground part (tulip; [9]): 44.1 b g | Average fresh weight of the above-ground part (tulip; [9]): 435.7 b g | Average dry weight of the above-ground part (tulip; [10]): 5.7 b g | Average fresh weight of the above-ground part (tulip; [10]): 61.0 b g | Average plant height, initial height, first treatment (tulip; before 1st watering): 46.4 a mm | Average plant height, second treatment (tulip; before 2nd watering): 133.6 b mm | Average plant height, third treatment (tulip; before 3rd watering): 271.2 b mm | Average plant height, fourth treatment (tulip; before 4th watering): 375.6 b mm | Average plant height, 20 days after the 4th treatment (tulip; end of experiment): 518.0 b mm
